Results reported in US20220213055A1, “SUBSTITUTED (PIPERIDIN-1-YL)ARYL ANALOGUES FOR MODULATING AVIL ACTIVITY” (University of Virginia Patent Foundation, priority 2019, published 2022).
Where two headings read alike, the source gives them in different places.

Assays:
[1] = test system: Glioblastoma cell line U87 cells; assay: MTT cell viability assay, glioblastoma cells; assay type: cell-based; conditions: U87 glioblastoma cells, MTT after three days
Protocol: (§1) Different concentration of compounds were added to the cells. Three days later, a MTT assay (Sigma) was performed to monitor cell viability.
(§2) In this example, samples of glioblastoma cells (U87) and astrocyte cells (non-cancer control) were exposed various disclosed compounds to determine the effectiveness of the compounds for inhibiting cell growth.

[2] = test system: Immortalized human astrocytes; assay: MTT cell viability assay, astrocytes (non-cancer control); assay type: cell-based; conditions: immortalized human astrocytes, MTT after three days
Protocol: as §1, §2

IC50 ([1]; Homo sapiens, U-87 MG, 72 h) [µM] | IC50 [1] [µM] | SMILES | IC50 ([2]; Homo sapiens, Astrocyte, 72 h) [µM] | IC50 ([2]; read-out: IC50 (astrocyte)) [µM]
> 80 | – | Nc1nccc(N2CCCCC2)n1 [JDDUVA12, 4-(Piperidin-1-yl)pyrimidin-2-amine] | > 80 | –
> 80 | – | COC(=O)C1CCCN(c2ccnc(N)n2)C1 (stereo not drawn) [JDDUVA16] | – | –
> 80 | – | Nc1nccc(N2CCCC(CO)C2)n1 (stereo not drawn) [JDDUVA18, (1-(2-Aminopyrimidin-4-yl)piperidin-3-yl)methanol] | – | –
~10.9 | – | COC(=O)C1(CCCc2ccccc2)CCCN(c2ccnc(N)n2)C1 (stereo not drawn) [JDDUVA20] | 70 | –
– | ~12.2 | Nc1nccc(N2CCCC(CO)(CCCc3ccccc3)C2)n1 (stereo not drawn) [JDDUVA28] | – | > 80
– | ~11 | Nc1nccc(N2CCCC(CO)(CCCc3ccccc3)C2)n1 (stereo not drawn) [JDDUVA38] | – | 56
– | – | Cc1nc(N)nc(N2CCC(CO)(CCCc3ccccc3)CC2)c1C [JDDUVA43, (1-(2-Amino-5,6-dimethylpyrimidin-4-yl)-4-(3-phenylpropyl)piperidin-4-yl)methanol] | 47 | 60
13 | – | OCC1(CCCc2ccccc2)CCN(c2cc(C(F)(F)F)ncn2)CC1 [JDDUVA47, (4-(3-Phenylpropyl)-1-(6-(trifluoromethyl)pyrimidin-4-yl)piperidin-4-yl)methanol] | > 80 | –
14.1 | – | Cc1c(O)ncnc1N1CCC(CO)(CCCc2ccccc2)CC1 [JDDUVA48, 6-(4-(Hydroxymethyl)-4-(3-phenylpropyl)piperidin-1-yl)-5-methylpyrimidin-4-ol] | 7.32 | –
3 | – | Nc1nccc(N2CCC(CO)(CCCc3ccccc3)CC2)n1 [JDDUVA49, (1-(2-Aminopyrimidin-4-yl)-4-(3-phenylpropyl)piperidin-4-yl)methanol] | > 80 | –
21 | – | Cc1c(Cl)ncnc1N1CCC(CO)(CCCc2ccccc2)CC1 [JDDUVA50, (1-(6-Chloro-5-methylpyrimidin-4-yl)-4-(3-phenylpropyl)piperidin-4-yl)methanol] | > 80 | –
12 | – | Nc1ncnc(N2CCC(CO)(CCCc3ccccc3)CC2)c1N [JDDUVA51, (1-(5,6-Diaminopyrimidin-4-yl)-4-(3-phenylpropyl)piperidin-4-yl)methanol] | > 80 | –
41 | – | COc1nc(OC)nc(N2CCC(CO)(CCCc3ccccc3)CC2)n1 [JDDUVA52, (1-(4,6-Dimethoxy-1,3,5-triazin-2-yl)-4-(3-phenylpropyl)piperidin-4-yl)methanol] | > 80 | –
30 | – | Cc1nccnc1N1CCC(CO)(CCCc2ccccc2)CC1 [JDDUVA53, (1-(3-Methylpyrazin-2-yl)-4-(3-phenylpropyl)piperidin-4-yl)methanol] | > 80 | –
16 | – | Nc1cncc(N2CCC(CO)(CCCc3ccccc3)CC2)n1 [JDDUVA55] | > 80 | –
72 | – | CC1CCN(c2ccnc(N)n2)CC1 [JDDUVA59, 4-(4-Methylpiperidin-1-yl)pyrimidin-2-amine] | > 80 | –
– | – | OCC1(CCCc2ccccc2)CCN(c2cc(Cl)ncn2)CC1 [JDDUVA60, (1-(6-Chloropyrimidin-4-yl)-4-(3-phenylpropyl)piperidin-4-yl)methanol] | > 80 | –
> 80 | – | Nc1nccc(N2CCCCC2CO)n1 (stereo not drawn) [JDDUVA61, (1-(2-Aminopyrimidin-4-yl)piperidin-2-yl)methanol] | > 80 | –
16 | – | Nc1nccc(N2CCC(c3ccccc3)CC2)n1 [JDDUVA63, 4-(4-Phenylpiperidin-1-yl)pyrimidin-2-amine] | > 80 | –
~2.5 | – | COc1c(Cl)ncnc1N1CCC(CO)(CCCc2ccccc2)CC1 [JDDUVA67, (1-(6-Chloro-5-methoxypyrimidin-4-yl)-4-(3-phenylpropyl)piperidin-4-yl)methanol] | ~6 | –
3.6 | – | CCc1ncnc(N2CCC(CO)(CCCc3ccccc3)CC2)c1F [JDDUVA68, (1-(6-Ethyl-5-fluoropyrimidin-4-yl)-4-(3-phenylpropyl)piperidin-4-yl)methanol] | 12.5 | –
13.6 | – | Nc1ccnc(N2CCC(CO)(CCCc3ccccc3)CC2)n1 [JDDUVA69, (1-(4-Aminopyrimidin-2-yl)-4-(3-phenylpropyl)piperidin-4-yl)methanol] | > 80 | –
> 80 | – | Nc1nccc(N2CCc3ccccc3C2)n1 [JDDUVA71, 4-(3,4-Dihydroisoquinolin-2(1H)-yl)pyrimidin-2-amine] | > 80 | –
~30 | – | CCOC(=O)C1(CCCc2ccccc2)CCN(C(=O)OC(C)(C)C)CC1 [JDDUVA76] | ~60 | –
12 | – | Nc1nc(N)nc(N2CCC(CO)(CCCc3ccccc3)CC2)n1 [JDDUVA78, (1-(4,6-Diamino-1,3,5-triazin-2-yl)-4-(3-phenylpropyl)piperidin-4-yl)methanol] | ~40 | –
> 80 | – | Clc1cc(N2CCc3ccccc3C2)ncn1 [JDDUVA81] | > 80 | –

IC50 ([1]; Homo sapiens, U-87 MG, 72 h) [µM] | IC50 [1] [µM] | SMILES | IC50 ([2]; Homo sapiens, Astrocyte, 72 h) [µM] | IC50 ([2]; read-out: IC50 (astrocyte)) [µM]
~4 | – | Cc1ncnc(N2CCC(CO)(CCCc3ccccc3)CC2)c1C [JDDUVA96, (1-(5,6-Dimethylpyrimidin-4-yl)-4-(3-phenylpropyl)piperidin-4-yl)methanol] | ~8 | –
> 80 | – | COC(=O)C1CCCNC1 (stereo not drawn) [PLH1155] | > 80 | –
> 80 | – | COC(=O)C1CCCN(C(=O)OC(C)(C)C)C1 (stereo not drawn) [PLH1190] | > 80 | –
~22.5 | – | COC(=O)C1(CCCc2ccccc2)CCCN(C(=O)OC(C)(C)C)C1 (stereo not drawn) [PLH1195] | 65 | –
~30 | – | CC(C)(C)OC(=O)N1CCCC(CO)(CCCc2ccccc2)C1 (stereo not drawn) [PLH1196] | > 80 | –
~80 | – | O=C(O)C1(CCCc2ccccc2)CCCNC1 (stereo not drawn) [PLH1197] | > 80 | –
– | 6 | COC(=O)C1(CCCc2ccccc2)CCCN(c2ccnc(N)n2)C1 (stereo not drawn) [PLH1209, Methyl 1-(2-aminopyrimidin-4-yl)-3-(3-phenylpropyl)piperidine-3-carboxylate] | – | 76
> 80 | – | OCC1(CCCc2ccccc2)CCCNC1 (stereo not drawn) [PLH1211] | > 80 | –
~11.7 | – | Nc1nccc(N2CCCC(CO)(CCCc3ccccc3)C2)n1 (stereo not drawn) [PLH1215, (1-(2-Aminopyrimidin-4-yl)-3-(3-phenylpropyl)piperidin-3-yl)methanol] | > 80 | –
~50 | – | CS(=O)(=O)OCC1(CCCc2ccccc2)CCCN(c2ccnc(N)n2)C1 (stereo not drawn) [PLH1224] | > 80 | –
~15 | – | CCOC(=O)C1(CCCc2ccccc2)CCCN(C(=O)OC(C)(C)C)C1 (stereo not drawn) [PLH1225] | > 80 | –
63.6 | – | COc1nc(OC)nc(N2CCCC(CO)(CCCc3ccccc3)C2)n1 (stereo not drawn) [PLH1230, (1-(4,6-Dimethoxy-1,3,5-triazin-2-yl)-3-(3-phenylpropyl)piperidin-3-yl)methanol] | > 80 | –
20 | – | Cc1nccnc1N1CCCC(CO)(CCCc2ccccc2)C1 (stereo not drawn) [PLH1234, (1-(3-Methylpyrazin-2-yl)-3-(3-phenylpropyl)piperidin-3-yl)methanol] | 51.8 | –
> 80 | – | Nc1ncnc(N2CCCC(CO)(CCCc3ccccc3)C2)n1 (stereo not drawn) [PLH1239, (1-(4-Amino-1,3,5-triazin-2-yl)-3-(3-phenylpropyl)piperidin-3-yl)methanol] | – | –
~1.7 | ~3.4 | Nc1nccc(N2CCCC(CCCc3ccccc3)(COCc3ccccc3)C2)n1 (stereo not drawn) [PLH1253, 4-(3-((Benzyloxy)methyl)-3-(3-phenylpropyl)piperidin-1-yl)pyrimidin-2-amine] | – | –
16 | – | O=C(c1sc2cc(F)ccc2c1Cl)N1CCCC(CO)(CCCc2ccccc2)C1 (stereo not drawn) [PLH1254] | 49 | –
3.6 | – | Nc1nc(N)nc(N2CCCC(CO)(CCCc3ccccc3)C2)n1 (stereo not drawn) [PLH1258, (1-(4,6-Diamino-1,3,5-triazin-2-yl)-3-(3-phenylpropyl)piperidin-3-yl)methanol] | > 80 | –
> 80 | – | CC(C)(C)OC(=O)N1CCCC(C(=O)NCc2ccccc2)C1 (stereo not drawn) [PLH1273] | > 80 | –
19 | – | Cc1nc(N(C)C)nc(N2CCCC(CO)(CCCc3ccccc3)C2)c1C (stereo not drawn) [PLH1276, (1-(2-(Dimethylamino)-5,6-dimethylpyrimidin-4-yl)-3-(3-phenylpropyl)piperidin-3-yl)methanol] | > 80 | –
8 | – | Cc1c(Cl)ncnc1N1CCCC(CO)(CCCc2ccccc2)C1 (stereo not drawn) [PLH1279, (1-(6-Chloro-5-methylpyrimidin-4-yl)-3-(3-phenylpropyl)piperidin-3-yl)methanol] | > 80 | –
17 | – | Nc1nccc(N2CCCC(C(=O)NCCc3ccccc3)C2)n1 (stereo not drawn) [PLH1285, 1-(2-Aminopyrimidin-4-yl)-N-phenethylpiperidine-3-carboxamide] | > 80 | –
> 80 | – | Nc1nccc(N2CCCC(C(=O)NCc3ccccc3)C2)n1 (stereo not drawn) [PLH1290, 1-(2-Aminopyrimidin-4-yl)-N-benzylpiperidine-3-carboxamide] | > 80 | –
14 | – | OCC1(CCCc2ccccc2)CCCN(c2ccccn2)C1 (stereo not drawn) [PLH1291, (3-(3-Phenylpropyl)-1-(pyridin-2-VI)piperidin-3-VI)methanol] | > 80 | –
8 | – | O=Cc1c(Cl)ncnc1N1CCCC(CO)(CCCc2ccccc2)C1 (stereo not drawn) [PLH1293] | 18 | –
~2.5 | 2.3 | COc1c(Cl)ncnc1N1CCCC(CO)(CCCc2ccccc2)C1 (stereo not drawn) [PLH1302, (1-(6-Chloro-5-methoxypyrimidin-4-yl)-3-(3-phenylpropyl)piperidin-3-yl)methanol] | ~20 | 10
3.83 | – | Nc1nccc(N2CCCC(CO)(CCc3ccccc3)C2)n1 (stereo not drawn) [PLH1304, (1-(2-Aminopyrimidin-4-yl)-3-phenethylpiperidin-3-yl)methanol] | ~80 | –
